Experimental data as given in PMC3985517, “Abscisic acid dynamics in roots detected with genetically encoded FRET sensors” (eLife, 2014).
Where two headings read alike, the source gives them in different places.

Experiments:
Arabidopsis roots [1] = tested on: Arabidopsis roots; parameters: method as in Grossmann et al., 2011; details: ref Grossmann et al., 2011; cited from earlier work
Arabidopsis seedlings = experiment: Primary root growth of ABACUS1 plant lines on ABA plates; assay type: in vivo
Experimental: (§1) For ABA treatments, 20 mM (±)-ABA was prepared freshly as a stock solution in 50 mM NaOH. Mock treatment plates were made using NaOH to keep pH consistent. Root tips were marked at the time of transfer and images were acquired after 4 days growth on vertical treatment plates. Root growth after transfer were measured using FIJI (http://fiji.sc/). Each experiment included ∼15 roots per genotype and was repeated three independent times with similar results. ABA sensitivity of seed germination rate of Arabidopsis seeds was assayed after sowing on ½ × MS agar medium plates supplemented with 0, 2 or 20 µM (±)-ABA. […] Plates were stratified for 2 days at +4°C after which they were transferred to a growth chamber with standard long day conditions (16 hr high light, 22°C, 70% RH). Seeds were considered germinated at radicle emergence and germination rate was assayed 9 days post sowing in three independent experiments of 100–200 seeds per genotype. The abi1-2, hab1-1, pp2ca-1 triple mutant line was a gift from Pedro Rodriguez ([Rubio et al., 2009]).

Arabidopsis seeds = experiment: Seed germination on ABA plates; assay type: in vivo; details: all genotypes; plates with 20 µM (±)-ABA
Experimental: as §1

ABACUS1-2µ = assay type: biochemical, Arabidopsis; details: Figure 3B-E
Arabidopsis roots [2] = experiment: ABACUS1 responses in roots perfused with ABA in the RootChip16; assay type: in vivo
Experimental: The RootChip16 device was used as described in detail previously for the RootChip ([Grossmann et al., 2011], [2012]). Briefly, the device was sterilized by UV light exposure, immersed in liquid growth media (¼ × MS salts, 1.28 mM MES pH 5.7 supplemented with B vitamins at final concentrations of niacin 2.3 µM, thiamine 1.5 µM, pyridoxin 1.2 µM and myo-inositol 0.3 µM), and air in the root observation chambers was removed by applying suction at the solution outlets using a microliter pipette. 5-day old Arabidopsis seedlings, germinated on 5 mm long cut 10 µl pipette tips filled with solidified growth medium (½ × MS salts, 1% Agar, 2.56 mM MES pH 5.7 supplemented with B vitamins at final concentrations of niacin 4.6 µM, thiamine 3.0 µM, pyridoxin 2.4 µM and myo-inositol 0.6 µM, were transferred onto the chip by plugging the tips into the root inlets. The chip was incubated for 24 hr under standard long-day growth conditions (16 hr high light, 22°C, 70% RH) to allow roots to grow into the observation chambers. Before imaging, the RootChip16 was inserted from below into the central aperture of the carrier and fixed with tape. Pressure lines for control over micromechanical valves and flow lines for perfusion of solutions were connected. To actuate the push-up valves on the chip, a closing pressure of 15 p.s.i (1.03 bar) was applied to the water filled control lines. […]

[3] = parameters: method as in Kaiser and Hartung, 1981; details: ref Kaiser and Hartung, 1981; cited from earlier work

OC[C@H]1OC(O)[C@H](O)[C@@H](O)[C@@H]1O (stereo partly drawn) [Glucose, glucose]
time to saturation of sensor responses (Arabidopsis roots [1]): less than 1 min

CC1=CC(=O)CC(C)(C)C1(O)/C=C/C(C)=C\C(=O)O (racemic) [(±)-ABA]
root growth of ABACUS1-2µ sensor lines (Arabidopsis seedlings; 20 µM exogenous (±)-ABA): almost completely inhibited | root growth of ABACUS1-80µ plants (Arabidopsis seedlings; 100 µM exogenous (±)-ABA): strongly inhibited | germination (Arabidopsis seeds): 0%

O=S(=O)(NCc1ccccn1)c1ccc(Br)c2ccccc12 [Pyrabactin, pyrabactin]
increase in energy transfer of ABACUS1 (positive ratio change), in words (ABACUS1-2µ): induced

O=c1[nH]c(=O)c2nc[nH]c2[nH]1 [Xanthine, xanthine]
increase in energy transfer of ABACUS1 (positive ratio change), in words (ABACUS1-2µ): did not occur

CC1=CC(=O)CC(C)(C)[C@@]1(O)/C=C/C(C)=C\C(=O)O [ABA, abscisic acid]
accumulation rate of a non-pre-exposed root relative to a root pre-exposed to ABA (Arabidopsis roots [2]; first ABA pulse, 5 µM (±)-ABA, ABACUS1-2µ roots): nearly twice | time to saturation of sensor responses (Arabidopsis roots [2]; typical experiment, roots): ~15 min | pKa [3]: 4.7
